Measurements as given in patent publication US20090062355A1, “Pharmaceutical Product” (Takeda Pharmaceutical Company Limited, priority 2006, published 2009).
Like-named read-outs stand apart in the source and are kept apart here.

Assays:
Type in all cases: cell-based
[1] = test system: mouse macrophage cell line RAW264.7 cells; assay: Suppressive action on production of mediator from LPS stimulated macrophage; conditions: LPS 10 ng/ml, overnight culture
Experimental: A suppressive effect of test compound 1 (compound 72 of Reference Example B66) on the production of various mediators by lipopolysaccharide (LPS), which is a TLR4 agonist, using mouse macrophage cell line RAW264.7 cells was examined. The day before the experiment, the cells were suspended to 5×10^5 cells/mL in RPMI1640 medium supplemented with 10% inactivated fetal bovine serum, plated on a 96 well microplate at 0.2 mL/well and incubated at 37° C., 5% CO2/95% air overnight. The medium was changed to RPMI1640 medium supplemented with 1% inactivated fetal bovine serum, and test compound 1 and LPS (final concentration 10 ng/ml) was added. After overnight culture, cytokine, chemokine, prostaglandin E2 in the culture supernatant was quantified by ELISA, and nitrite ion (stable metabolite of NO) concentration was quantified by a fluorescence method using 2,3-diaminonaphthalene. Test compound 1 was dissolved in N,N-dimethylformamide to 10 mM, diluted with RPMI1640 medium supplemented with 1% inactivated fetal bovine serum to 0.1 mM, further diluted with the medium to 10-fold concentration of the final concentration and 1/10 thereof was added. Test compound 1 suppressed almost all the examined mediator production at an equivalent IC50.

[2] = test system: Peripheral Blood Mononuclear Cells; assay: Influence on binding of LPS to PBMC (flow cytometry); conditions: 10 μM; 4° C. 30 min, then labeled LPS 50 ng/mL, 1% human serum, 37° C. 45 min; FIG. 2
Excerpt: FIG. 2 is a graph showing the effects of test compound 1, anti-CD14 antibody and anti-CCR5 antibody on the binding of LPS to PBMC. With an average of triplicate measurement values of LPS alone as 100%, % averages of triplicate measurement values of other groups are shown, mean±standard error (Experimental Example 6, results of 4 independent tests using PBMC obtained from the blood of different 4 subjects).
Peripheral Blood Mononuclear Cells were Separated by a conventional method, and reacted with test compound 1 (compound 72 of Reference Example B66), anti-human CD14 monoclonal antibody MEM-18 and anti-human CCR5 monoclonal antibody 2D7 (negative control) at 4° C. for 30 min. The cells were reacted with fluorescence label LPS (E. coli O55:B5, Alexa Fluor® 488-labeled, 50 ng/mL) in the presence of 1% human serum at 37° C. for 45 min. The cells (10,000 cells) were washed and the binding of fluorescence label LPS was examined by flow cytometry.

[3] = test system: mouse macrophage cell line RAW264.7 cells; assay: Inhibitory action on intracellular signal transduction after LPS stimulation (Bioplex phosphorylated protein assay); conditions: LPS 10 ng/mL; 1, 3, 10, 20, 30 min; FIG. 1
Excerpt: FIG. 1-1 is a graph showing the effect of test compound 1 on phosphorylated protein (ATF2) after LPS addition in mouse macrophage cells. An average of triplicate measurement values is shown, mean±standard error (Experimental Example 5, n=3).
FIG. 1-2 is a graph showing the effect of test compound 1 on phosphorylated protein (JNK) after LPS addition in mouse macrophage cells. An average of triplicate measurement values is shown, mean±standard error (Experimental Example 5, n=3).
FIG. 1-3 is a graph showing the effect of test compound 1 on phosphorylated protein (p38MAPK) after LPS addition in mouse macrophage cells. An average of triplicate measurement values is shown, mean±standard error (Experimental Example 5, n=3).
FIG. 1-4 is a graph showing the effect of test compound 1 on phosphorylated protein (IκBα) after LPS addition in mouse macrophage cells. An average of triplicate measurement values is shown, mean±standard error (Experimental Example 5, n=3). […]
A suppressive effect of test compound 1 (compound 72 of • Reference Example B66) on the production of various cytokines by lipopolysaccharide (LPS), which is a TLR4 agonist, using mouse macrophage cell line RAW264.7 cells was examined. […] The supernatant was recovered, and phosphorylated protein was quantified using Bioplex phosphorylated protein assay (Bio-Rad). […]

## CCOC(=O)C1=CCCC[C@H]1S(=O)(=O)Nc1ccc(F)cc1Cl [test compound 1, ethyl (6R)-6-[(2-chloro-4-fluoroanilino)sulfonyl]-1-cyclohexene-1-carboxylate]
[1]; ELISA, read-out: IC50, IL-1α production
  IC50: 1.1 nM
[1]; ELISA, read-out: IC50, IL-6 production
  IC50: 2 nM
[1]; ELISA, read-out: IC50, IL-10 production
  IC50: 1.6 nM
[1]; ELISA, read-out: IC50, MIP-2 production
  IC50: 7.1 nM
[1]; ELISA, read-out: IC50, PGE2 production
  IC50: 4 nM
[1]; ELISA, read-out: IC50, TNF-α production
  IC50: 3.1 nM
[1]; fluorescence method with 2,3-diaminonaphthalene, read-out: IC50, NO production (nitrite ion)
  IC50: 1.8 nM
[2]
  binding of fluorescence label LPS to PBMC: completely failed to inhibit
[3]
  phosphorylated protein after LPS addition (ATF2, JNK, p38MAPK, IκBα, ERK1/2, p90RSK, STAT2, p70 S6 Kinase): suppressed phosphorylation of all examined proteins involved in LPS signal transduction
